Source: ChEMBL document CHEMBL1687756 (Antimicrob Agents Chemother, 2010)

How the values were obtained:
[1] = Ratio of drug level in thymus to plasma in male Beagle dog at 200 mg/kg administered intramuscularly after 3 months; type: ADME, organism-based, Canis lupus familiaris; set-up: dose 200 mg/kg, route intramuscular; settings: im
[2] = AUC (0 to last) in male dog at 200 mg, sc after 29 days; settings: plasma
[3] = Ratio of drug level in spleen to plasma in female Beagle dog at 200 mg/kg administered intramuscularly after 3 months; type: ADME, organism-based, Canis lupus familiaris; set-up: dose 200 mg/kg, route intramuscular; settings: im
[4] = Drug level in Beagle dog skin at non-injected site at 5 mg/kg, sc after 3 months; type: ADME, organism-based, Canis lupus familiaris, Zone of skin; set-up: dose 5 mg/kg, route subcutaneous; settings: read-out: Drug uptake
Canis familiaris [5] = assay: Toxicity in Beagle dog assessed as irritation at 20 mg/kg, sc after 3 months; type: organism-based, Canis lupus familiaris; set-up: dose 20 mg/kg, route subcutaneous; settings: in vivo, 2191.5 h
[6] = Drug level in male Beagle dog spleen at 400 mg/kg administered intramuscularly after 3 months; type: ADME, organism-based, Canis lupus familiaris; set-up: dose 400 mg/kg, route intramuscular; settings: im, read-out: Drug uptake
[7] = Cmax in Beagle dog at 5 mg/kg, sc after 176 days; type: ADME, organism-based, Canis lupus familiaris; set-up: dose 5 mg/kg, route subcutaneous; settings: in vivo
[8] = Plasma concentration in female Beagle dog at 400 mg/kg administered intramuscularly after 1 month; type: ADME, organism-based, Canis lupus familiaris; set-up: dose 400 mg/kg, route intramuscular; settings: im, read-out: Drug uptake
[9] = Drug level in Beagle dog lymph node mandibular at 5 mg/kg, sc after 6 months; type: ADME, organism-based, Canis lupus familiaris; set-up: dose 5 mg/kg, route subcutaneous; settings: read-out: Drug uptake
[10] = Drug level in male Beagle dog thymus at 200 mg/kg, sc after 3 months; type: ADME, organism-based, Canis lupus familiaris; set-up: dose 200 mg/kg, route subcutaneous; settings: read-out: Drug uptake
[11] = Cmax in Beagle dog at 5 mg/kg, sc after 184 days; type: ADME, organism-based, Canis lupus familiaris; set-up: dose 5 mg/kg, route subcutaneous; settings: in vivo
[12] = Drug level in Beagle dog lymph node iliac at 5 mg/kg administered intramuscularly after 6 months; type: ADME, organism-based, Canis lupus familiaris; set-up: dose 5 mg/kg, route intramuscular; settings: im, read-out: Drug uptake
[13] = Drug level in female Beagle dog thymus at 400 mg/kg administered intramuscularly after 1 month; type: ADME, organism-based, Canis lupus familiaris; set-up: dose 400 mg/kg, route intramuscular; settings: im, read-out: Drug uptake
[14] = Ratio of drug level in lymph node iliac to plasma in Beagle dog at 5 mg/kg, sc after 6 months; type: ADME, organism-based, Canis lupus familiaris; set-up: dose 5 mg/kg, route subcutaneous
[15] = Ratio of drug level in spleen to plasma in male Beagle dog at 200 mg/kg administered intramuscularly after 3 months; type: ADME, organism-based, Canis lupus familiaris; set-up: dose 200 mg/kg, route intramuscular; settings: im
[16] = Ratio of drug level in thymus to plasma in male Beagle dog at 400 mg/kg administered intramuscularly after 3 months; type: ADME, organism-based, Canis lupus familiaris; set-up: dose 400 mg/kg, route intramuscular; settings: im
[17] = Drug level in Beagle dog lymph node mandibular at 5 mg/kg administered intramuscularly after 6 months; type: ADME, organism-based, Canis lupus familiaris; set-up: dose 5 mg/kg, route intramuscular; settings: im, read-out: Drug uptake
Canis familiaris [18] = assay: Toxicity in Beagle dog assessed as abscess formation at 20 mg/kg, sc after 3 months; type: organism-based, Canis lupus familiaris; set-up: dose 20 mg/kg, route subcutaneous; settings: in vivo, 2191.5 h
[19] = Ratio of drug level in thymus to plasma in female Beagle dog at 400 mg/kg administered intramuscularly after 1 month; type: ADME, organism-based, Canis lupus familiaris; set-up: dose 400 mg/kg, route intramuscular; settings: im
[20] = Plasma concentration in female Beagle dog at 400 mg/kg, sc after 1 month; type: ADME, organism-based, Canis lupus familiaris; set-up: dose 400 mg/kg, route subcutaneous; settings: read-out: Drug uptake
[21] = Drug level in Beagle dog spleen at 5 mg/kg, sc after 3 months; type: ADME, organism-based, Canis lupus familiaris; set-up: dose 5 mg/kg, route subcutaneous; settings: read-out: Drug uptake
[22] = Drug level in female Beagle dog thymus at 400 mg/kg, sc after 3 months; type: ADME, organism-based, Canis lupus familiaris; set-up: dose 400 mg/kg, route subcutaneous; settings: read-out: Drug uptake
Canis familiaris [23] = assay: Toxicity in Beagle dog assessed as white deposits at 20 mg/kg, sc after 3 months; type: organism-based, Canis lupus familiaris; set-up: dose 20 mg/kg, route subcutaneous; settings: in vivo, 2191.5 h
[24] = Cmax in female dog at 200 mg, sc after 85 days; settings: in vivo
[25] = Plasma concentration in Beagle dog at 5 mg/kg administered intramuscularly after 1 month; type: ADME, organism-based, Canis lupus familiaris; set-up: dose 5 mg/kg, route intramuscular; settings: im
[26] = Drug level in female Beagle dog thymus at 200 mg/kg administered intramuscularly after 1 month; type: ADME, organism-based, Canis lupus familiaris; set-up: dose 200 mg/kg, route intramuscular; settings: im, read-out: Drug uptake
[27] = Absolute bioavailability in Beagle dog at 5 mg/kg, sc after 176 days; type: ADME, organism-based, Canis lupus familiaris; settings: in vivo
Canis familiaris [28] = assay: Toxicity in Beagle dog assessed as abscess formation at 20 mg/kg administered intramuscularly after 3 months; type: organism-based, Canis lupus familiaris; set-up: dose 20 mg/kg, route intramuscular; settings: in vivo, im, 2191.5 h
[29] = Drug level in Beagle dog lymph node popliteal at 5 mg/kg, sc after 3 months; type: ADME, organism-based, Canis lupus familiaris; set-up: dose 5 mg/kg, route subcutaneous; settings: read-out: Drug uptake
[30] = Cmax in female dog at 400 mg administered intramuscularly after 85 days; settings: in vivo, im
[31] = Drug level in Beagle dog muscle at non-injected site at 5 mg/kg administered intramuscularly after 6 months; type: ADME, organism-based, Canis lupus familiaris, Muscle tissue; set-up: dose 5 mg/kg, route intramuscular; settings: im, read-out: Drug uptake
[32] = Plasma concentration in male Beagle dog at 400 mg/kg administered intramuscularly after 1 month; type: ADME, organism-based, Canis lupus familiaris; set-up: dose 400 mg/kg, route intramuscular; settings: im
[33] = Plasma concentration in male Beagle dog at 400 mg/kg, sc after 3 months; type: ADME, organism-based, Canis lupus familiaris; set-up: dose 400 mg/kg, route subcutaneous
[34] = AUC (0 to last) in female dog at 400 mg administered intramuscularly after 85 days; settings: plasma, im
[35] = Ratio of drug level in thymus to plasma in Beagle dog at 5 mg/kg, sc after 3 months; type: ADME, organism-based, Canis lupus familiaris; set-up: dose 5 mg/kg, route subcutaneous
[36] = Ratio of drug level in thymus to plasma in female Beagle dog at 400 mg/kg administered intramuscularly after 3 months; type: ADME, organism-based, Canis lupus familiaris; set-up: dose 400 mg/kg, route intramuscular; settings: im
[37] = Drug level in male Beagle dog thymus at 400 mg/kg administered intramuscularly after 3 months; type: ADME, organism-based, Canis lupus familiaris; set-up: dose 400 mg/kg, route intramuscular; settings: im, read-out: Drug uptake
[38] = Drug level in male Beagle dog thymus at 400 mg/kg, sc after 1 month; type: ADME, organism-based, Canis lupus familiaris; set-up: dose 400 mg/kg, route subcutaneous; settings: read-out: Drug uptake
[39] = Tmax in female dog at 200 mg administered intramuscularly after 29 days; settings: in vivo, im
[40] = Ratio of drug level in thymus to plasma in female Beagle dog at 200 mg/kg, sc after 1 month; type: ADME, organism-based, Canis lupus familiaris; set-up: dose 200 mg/kg, route subcutaneous
[41] = Ratio of drug level in lymph node iliac to plasma in Beagle dog at 5 mg/kg, sc after 1 month; type: ADME, organism-based, Canis lupus familiaris; set-up: dose 5 mg/kg, route subcutaneous
[42] = Cmax in Beagle dog at 5 mg/kg administered intramuscularly after 176 days; type: ADME, organism-based, Canis lupus familiaris; set-up: dose 5 mg/kg, route intramuscular; settings: in vivo, im
[43] = Ratio of drug level in spleen to plasma in Beagle dog at 5 mg/kg, sc after 3 months; type: ADME, organism-based, Canis lupus familiaris; set-up: dose 5 mg/kg, route subcutaneous
[44] = AUC (0 to last) in Beagle dog at 5 mg/kg, sc after 176 days; type: ADME, organism-based, Canis lupus familiaris; set-up: time 0 - last, dose 5 mg/kg, route subcutaneous; settings: plasma
[45] = Ratio of drug level in lymph node mandibular to plasma in Beagle dog at 5 mg/kg, sc after 3 months; type: ADME, organism-based, Canis lupus familiaris; set-up: dose 5 mg/kg, route subcutaneous
[46] = Drug level in male Beagle dog thymus at 200 mg/kg, sc after 1 month; type: ADME, organism-based, Canis lupus familiaris; set-up: dose 200 mg/kg, route subcutaneous; settings: read-out: Drug uptake
[47] = Ratio of drug level in thymus to plasma in female Beagle dog at 400 mg/kg, sc after 3 months; type: ADME, organism-based, Canis lupus familiaris; set-up: dose 400 mg/kg, route subcutaneous
[48] = Plasma concentration in Beagle dog at 5 mg/kg, sc after 3 months; type: ADME, organism-based, Canis lupus familiaris; set-up: dose 5 mg/kg, route subcutaneous
[49] = Tmax in Beagle dog at 5 mg/kg administered intramuscularly after 176 days; type: ADME, organism-based, Canis lupus familiaris; set-up: dose 5 mg/kg, route intramuscular; settings: in vivo, im
[50] = Ratio of drug level in liver to plasma in Beagle dog at 5 mg/kg, sc after 3 months; type: ADME, organism-based, Canis lupus familiaris; set-up: dose 5 mg/kg, route subcutaneous
[51] = Drug level in female Beagle dog spleen at 400 mg/kg, sc after 1 month; type: ADME, organism-based, Canis lupus familiaris; set-up: dose 400 mg/kg, route subcutaneous; settings: read-out: Drug uptake
[52] = Drug level in female Beagle dog thymus at 200 mg/kg, sc after 1 month; type: ADME, organism-based, Canis lupus familiaris; set-up: dose 200 mg/kg, route subcutaneous; settings: read-out: Drug uptake
[53] = Ratio of drug level in liver to plasma in Beagle dog at 5 mg/kg, sc after 6 months; type: ADME, organism-based, Canis lupus familiaris; set-up: dose 5 mg/kg, route subcutaneous
[54] = Drug level in Beagle dog muscle at injected site at 5 mg/kg administered intramuscularly after 6 months; type: ADME, organism-based, Canis lupus familiaris, Muscle tissue; set-up: dose 5 mg/kg, route intramuscular; settings: im, read-out: Drug uptake
[55] = AUC (0 to last) in male dog at 200 mg, sc after 85 days; settings: plasma
[56] = Ratio of drug level in thymus to plasma in female Beagle dog at 200 mg/kg, sc after 3 months; type: ADME, organism-based, Canis lupus familiaris; set-up: dose 200 mg/kg, route subcutaneous

Kp at 2191.5 h [1]: 3.8
AUC(0-t) at 696 h [2]: 56800 ng·h/mL
Kp at 2191.5 h [3]: 2.2
concentration at 2191.5 h [4]: 24.2 ng/g
concentration at 2191.5 h [6]: 63.5 ng/g
Cmax [7]: 31.4 ng/mL
concentration at 730.5 h [8]: 118 ng/g
concentration at 4383 h [9]: 7.8 ng/g
concentration at 2191.5 h [10]: 84.2 ng/g
Cmax [11]: 38 ng/mL
concentration at 4383 h [12]: 10.7 ng/g
concentration at 730.5 h [13]: 676 ng/g
Kp at 4383 h [14]: 7.7
Kp at 2191.5 h [15]: 2.7
Kp at 2191.5 h [16]: 3.9
concentration at 4383 h [17]: 6.9 ng/g
Kp at 730.5 h [19]: 6
concentration at 730.5 h [20]: 227 ng/g
concentration at 2191.5 h [21]: 9.7 ng/g
concentration at 2191.5 h [22]: 101 ng/g
Cmax [24]: 191 ng/mL
concentration at 730.5 h [25]: 11.3 ng/mL
concentration at 730.5 h [26]: 353 ng/g
bioavailability [27]: 80%
concentration at 2191.5 h [29]: 26.8 ng/g
Cmax [30]: 5260 ng/mL
concentration at 4383 h [31]: < 5 ng/g
concentration at 730.5 h [32]: 158 ng/mL
concentration at 2191.5 h [33]: 48.4 ng/mL
AUC(0-t) at 2040 h [34]: 265000 ng·h/mL
Kp at 2191.5 h [35]: 13
Kp at 2191.5 h [36]: 4.9
concentration at 2191.5 h [37]: 76 ng/g
concentration at 730.5 h [38]: 606 ng/g
Tmax [39]: 4.6 h
Kp at 730.5 h [40]: 3.9
Kp at 730.5 h [41]: 3.9
Cmax [42]: 619 ng/mL
Kp at 2191.5 h [43]: 3
AUC(0-t) at 4224 h [44]: 19700 ng·h/mL
Kp at 2191.5 h [45]: 4
concentration at 730.5 h [46]: 576 ng/g
Kp at 2191.5 h [47]: 2.9
concentration at 2191.5 h [48]: 3.3 ng/mL
Tmax [49]: 0.5 h
Kp at 2191.5 h [50]: 14
concentration at 730.5 h [51]: 285 ng/g
concentration at 730.5 h [52]: 536 ng/g
Kp at 4383 h [53]: 24
concentration at 4383 h [54]: 11500 ng/g
AUC(0-t) at 2040 h [55]: 97800 ng·h/mL
Kp at 2191.5 h [56]: 4
SMILES: Cc1cc(/C=C/C#N)cc(C)c1Nc1ccnc(Nc2ccc(C#N)cc2)n1 [RILPIVIRINE]
Activity (Canis familiaris [5]): Non-toxic
Activity (Canis familiaris [18]): Non-toxic
Activity (Canis familiaris [23]): Non-toxic
Activity (Canis familiaris [28]): Non-toxic
